Results taken from US8815565B2, “Method for culturing mycoplasma contamination-free cells and method for removing mycoplasma contamination of cells” (Cellsafe Co., Ltd., priority 2010, dated 2014).

Test system: cells contaminated with mycoplasma
Experiment: Mycoplasma removal potential when amphidinol derivative was used, by filter pore size
Assay type: cell-based
Method: A medium was removed from the cell culture (80 to 90% confluent) which was cultured in the T-75 culture flask in (1) of Example 3 and which was confirmed as being contaminated with mycoplasma. The obtained cells were washed twice with 10 ml of a phosphate buffer solution. 2 ml of trypsin-EDTA was added thereto, followed by incubating at a temperature of 37° C. for 10 minutes to detach cells. Then, DMEM (GIBCO BRL, Cat. No. 12800-058) was added thereto to obtain 10 ml of cell suspension, which was then transferred to a 15 ml conical tube. The cell suspension in the conical tube was centrifuged at a rate of 1,500 rpm for 5 minutes, and then the supernatant was removed therefrom. 10 ml of 5% FBS-containing DMEM (GIBCO BRL, Cat. No. 12800-058) was added to the conical tube to obtain a cell suspension. The obtained cell suspension was divided into two groups each having an amount of 5 ml. […] The cell suspensions of the group 1 and 2 were diluted with 5% FBS-including DMEM (GIBCO BRL, Cat. No. 12800-058) to adjust the cell concentration to about 2.5×10^5 cells/ml, respectively. 4 ml of each cell suspension of the group 1 and 2 (each having about 2.5×10^5 cells/ml of cells) was transferred to a 15 ml tube, and then […] of 5% FBS-containing DMEM (GIBCO BRL, Cat. No. 12800-058) was added thereto. […] 10 ml of each of the obtained mixtures was transferred to a T-75 culture flask, followed by culturing for 3 days in a CO2 incubator for 3 days (passage 1 sub-culturing).
The medium was removed from the cell culture (80 to 90% confluent) which was cultured in the T-75 culture flask for 3 days. The obtained cells were washed twice with 10 ml of a phosphate buffer solution. 2 ml of trypsin-EDTA was added thereto, followed by incubating at a temperature of 37° C. for 10 minutes to detach the cells. Then, DMEM (GIBCO BRL, Cat. No. 12800-058) was added thereto to obtain 10 ml of cell suspension, which was then transferred to a 15 ml conical tube. The cell suspension in the conical tube was centrifuged at a rate of 1,500 rpm for 5 minutes, and then the supernatant was removed therefrom. 10 ml of 10% FBS-containing DMEM (GIBCO BRL, Cat. No. 12800-058) was added to the conical tube to obtain a cell suspension. The obtained cell suspension was divided into two groups each having an amount of 5 ml. […] The cell suspensions of the group 1 and 2 were diluted with 10% FBS-including DMEM (GIBCO BRL, Cat. No. 12800-058) to adjust the cell concentration to about 2.5×10^5 cells/ml, respectively. 4 ml of each cell suspension of the group 1 and 2 (each having about 2.5×10^5 cells/ml of cells) was transferred to a 15 ml tube, and then 5.5 ml of 10% FBS-containing DMEM (GIBCO BRL, Cat. No. 12800-058) was added thereto. […] 10 ml of each of the obtained mixtures was transferred to a T-75 culture flask, followed by culturing […] (passage 2 sub-culturing). The sub-culturing was performed twice more, and thus, passage 4 sub-culturing steps in total were performed.
Mycoplasma contamination was measured regarding the respective cells of the additional passages 1, 3, 6, 10, 12, 15, and 33 after the initial passage 4 treatments. Whether mycoplasma was removed was measured with a mycoplasma diagnosis kit (Promokine, Germany; Cellsafe Co., Ltd., Korea) according to the enclosed protocol. The resulting PCR products were electrophoresed on a 1% agarose gel to measure the mycoplasma contamination.
Sub-culturing was performed in the same manner as in (1), except that 2 μg/ml of the compound of Formula 3 was used as a reagent for removing mycoplasma , and the filters (Millipore) having pore sizes of 11, 20, 30, 60, 80, 90, and 100 μm and the filters (Falcon) having pore sizes of 40, 50, and 70 μm were used, and then, the mycoplasma contamination was measured.

C=C/C=C/CC/C=C/C=C/C=C/CC/C=C/C(O)C(O)C1OC(C(O)C(O)C(=C)CCC(O)C2CC(O)C(O)C(C(O)C(O)/C=C(\C)CCC(O)CC(O)C(O)C(C)CC(O)C(O)CCCCCC(O)CCCC(O)/C=C/CC(O)/C=C/CC(O)CO)O2)CC(O)C1O (centres unmarked) [AM3, amphidinol 3]
mycoplasma contamination (2 μg/ml, Pore size 11 μm, Passage 1 after treatment): −
mycoplasma contamination (2 μg/ml, Pore size 11 μm, Passage 3 after treatment): −
mycoplasma contamination (2 μg/ml, Pore size 11 μm, Passage 6 after treatment): −
mycoplasma contamination (2 μg/ml, Pore size 11 μm, Passage 10 after treatment): −
mycoplasma contamination (2 μg/ml, Pore size 11 μm, Passage 12 after treatment): −
mycoplasma contamination (2 μg/ml, Pore size 11 μm, Passage 15 after treatment): −
mycoplasma contamination (2 μg/ml, Pore size 11 μm, Passage 33 after treatment): −
mycoplasma contamination (2 μg/ml, Pore size 20 μm, Passage 1 after treatment): −
mycoplasma contamination (2 μg/ml, Pore size 20 μm, Passage 3 after treatment): −
mycoplasma contamination (2 μg/ml, Pore size 20 μm, Passage 6 after treatment): −
mycoplasma contamination (2 μg/ml, Pore size 20 μm, Passage 10 after treatment): −
mycoplasma contamination (2 μg/ml, Pore size 20 μm, Passage 12 after treatment): −
mycoplasma contamination (2 μg/ml, Pore size 20 μm, Passage 15 after treatment): −
mycoplasma contamination (2 μg/ml, Pore size 20 μm, Passage 33 after treatment): −
mycoplasma contamination (2 μg/ml, Pore size 30 μm, Passage 1 after treatment): −
mycoplasma contamination (2 μg/ml, Pore size 30 μm, Passage 3 after treatment): −
mycoplasma contamination (2 μg/ml, Pore size 30 μm, Passage 6 after treatment): −
mycoplasma contamination (2 μg/ml, Pore size 30 μm, Passage 10 after treatment): −
mycoplasma contamination (2 μg/ml, Pore size 30 μm, Passage 12 after treatment): −
mycoplasma contamination (2 μg/ml, Pore size 30 μm, Passage 15 after treatment): −
mycoplasma contamination (2 μg/ml, Pore size 30 μm, Passage 33 after treatment): −
mycoplasma contamination (2 μg/ml, Pore size 40 μm, Passage 1 after treatment): −
mycoplasma contamination (2 μg/ml, Pore size 40 μm, Passage 3 after treatment): −
mycoplasma contamination (2 μg/ml, Pore size 40 μm, Passage 6 after treatment): −
mycoplasma contamination (2 μg/ml, Pore size 40 μm, Passage 10 after treatment): −
mycoplasma contamination (2 μg/ml, Pore size 40 μm, Passage 12 after treatment): −
mycoplasma contamination (2 μg/ml, Pore size 40 μm, Passage 15 after treatment): −
mycoplasma contamination (2 μg/ml, Pore size 40 μm, Passage 33 after treatment): −
mycoplasma contamination (2 μg/ml, Pore size 50 μm, Passage 1 after treatment): −
mycoplasma contamination (2 μg/ml, Pore size 50 μm, Passage 3 after treatment): −
mycoplasma contamination (2 μg/ml, Pore size 50 μm, Passage 6 after treatment): −
mycoplasma contamination (2 μg/ml, Pore size 50 μm, Passage 10 after treatment): −
mycoplasma contamination (2 μg/ml, Pore size 50 μm, Passage 12 after treatment): −
mycoplasma contamination (2 μg/ml, Pore size 50 μm, Passage 15 after treatment): −
mycoplasma contamination (2 μg/ml, Pore size 50 μm, Passage 33 after treatment): −
mycoplasma contamination (2 μg/ml, Pore size 60 μm, Passage 1 after treatment): −
mycoplasma contamination (2 μg/ml, Pore size 60 μm, Passage 3 after treatment): −
mycoplasma contamination (2 μg/ml, Pore size 60 μm, Passage 6 after treatment): −
mycoplasma contamination (2 μg/ml, Pore size 60 μm, Passage 10 after treatment): −
mycoplasma contamination (2 μg/ml, Pore size 60 μm, Passage 12 after treatment): −
mycoplasma contamination (2 μg/ml, Pore size 60 μm, Passage 15 after treatment): −
mycoplasma contamination (2 μg/ml, Pore size 60 μm, Passage 33 after treatment): −
mycoplasma contamination (2 μg/ml, Pore size 70 μm, Passage 1 after treatment): −
mycoplasma contamination (2 μg/ml, Pore size 70 μm, Passage 3 after treatment): −
mycoplasma contamination (2 μg/ml, Pore size 70 μm, Passage 6 after treatment): −
mycoplasma contamination (2 μg/ml, Pore size 70 μm, Passage 10 after treatment): −
mycoplasma contamination (2 μg/ml, Pore size 70 μm, Passage 12 after treatment): −
mycoplasma contamination (2 μg/ml, Pore size 70 μm, Passage 15 after treatment): −
mycoplasma contamination (2 μg/ml, Pore size 70 μm, Passage 33 after treatment): −
mycoplasma contamination (2 μg/ml, Pore size 80 μm, Passage 1 after treatment): −
mycoplasma contamination (2 μg/ml, Pore size 80 μm, Passage 3 after treatment): −
mycoplasma contamination (2 μg/ml, Pore size 80 μm, Passage 6 after treatment): −
mycoplasma contamination (2 μg/ml, Pore size 80 μm, Passage 10 after treatment): −
mycoplasma contamination (2 μg/ml, Pore size 80 μm, Passage 12 after treatment): −
mycoplasma contamination (2 μg/ml, Pore size 80 μm, Passage 15 after treatment): −
mycoplasma contamination (2 μg/ml, Pore size 80 μm, Passage 33 after treatment): −
mycoplasma contamination (2 μg/ml, Pore size 90 μm, Passage 1 after treatment): −
mycoplasma contamination (2 μg/ml, Pore size 90 μm, Passage 3 after treatment): −
mycoplasma contamination (2 μg/ml, Pore size 90 μm, Passage 6 after treatment): −
mycoplasma contamination (2 μg/ml, Pore size 90 μm, Passage 10 after treatment): −
mycoplasma contamination (2 μg/ml, Pore size 90 μm, Passage 12 after treatment): −
mycoplasma contamination (2 μg/ml, Pore size 90 μm, Passage 15 after treatment): −
mycoplasma contamination (2 μg/ml, Pore size 90 μm, Passage 33 after treatment): −
mycoplasma contamination (2 μg/ml, Pore size 100 μm, Passage 1 after treatment): −
mycoplasma contamination (2 μg/ml, Pore size 100 μm, Passage 3 after treatment): −
mycoplasma contamination (2 μg/ml, Pore size 100 μm, Passage 6 after treatment): −
mycoplasma contamination (2 μg/ml, Pore size 100 μm, Passage 10 after treatment): −
mycoplasma contamination (2 μg/ml, Pore size 100 μm, Passage 12 after treatment): −
mycoplasma contamination (2 μg/ml, Pore size 100 μm, Passage 15 after treatment): −
mycoplasma contamination (2 μg/ml, Pore size 100 μm, Passage 33 after treatment): −
mycoplasma contamination (filter having a pore size of 10 to 100 μM): completely removed
